From patent publication US9944654B2, “Nargenicin compounds and uses thereof as antibacterial agents” (priority 2014, dated 2018)
Converted amounts (≈) assume the structure as drawn. Like-named read-outs stand apart in the source and are kept apart here.

What was measured:
[1] = biological target: T1, E. coli DnaE (DNA polymerase III α-subunit from Escherichia coli) (Escherichia coli, UniProt P10443); assay: In vitro DnaE single enzyme assay (E. coli); format: biochemical; conditions: for IC50: read-out: E. coli DnaE IC50 (converted)
T1 construct: EcDnaE (E. coli DnaE residues 1-1160); 6xHis (N); made in house; host or cells: E. coli BL21(DE3)
Summary of the method: (§1)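 His-tagged E. coli DnaE (residues 1-1160, 0.8 μg/ml) or S. aureus DnaE (residues 1-1065, 0.05 μg/ml) incubated 30 min at 30° C. with activated calf thymus DNA, 0.025 mM dATP/dGTP/dCTP and 0.011 mM 3H-dTTP in Tris pH 7.5/Mg acetate. TCA-precipitated labelled DNA counted.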

[2] = biological target: T2, S. aureus DnaE (DNA polymerase III α-subunit homolog from Staphylococcus aureus) (Staphylococcus aureus, UniProt Q5HF71); assay: biochemical; format: biochemical
T2 construct: SaDnaE (S. aureus DnaE residues 1-1065); 6xHis (N); made in house; host or cells: E. coli BL21-AI
T2 sequence (Q5HF71 1-1065): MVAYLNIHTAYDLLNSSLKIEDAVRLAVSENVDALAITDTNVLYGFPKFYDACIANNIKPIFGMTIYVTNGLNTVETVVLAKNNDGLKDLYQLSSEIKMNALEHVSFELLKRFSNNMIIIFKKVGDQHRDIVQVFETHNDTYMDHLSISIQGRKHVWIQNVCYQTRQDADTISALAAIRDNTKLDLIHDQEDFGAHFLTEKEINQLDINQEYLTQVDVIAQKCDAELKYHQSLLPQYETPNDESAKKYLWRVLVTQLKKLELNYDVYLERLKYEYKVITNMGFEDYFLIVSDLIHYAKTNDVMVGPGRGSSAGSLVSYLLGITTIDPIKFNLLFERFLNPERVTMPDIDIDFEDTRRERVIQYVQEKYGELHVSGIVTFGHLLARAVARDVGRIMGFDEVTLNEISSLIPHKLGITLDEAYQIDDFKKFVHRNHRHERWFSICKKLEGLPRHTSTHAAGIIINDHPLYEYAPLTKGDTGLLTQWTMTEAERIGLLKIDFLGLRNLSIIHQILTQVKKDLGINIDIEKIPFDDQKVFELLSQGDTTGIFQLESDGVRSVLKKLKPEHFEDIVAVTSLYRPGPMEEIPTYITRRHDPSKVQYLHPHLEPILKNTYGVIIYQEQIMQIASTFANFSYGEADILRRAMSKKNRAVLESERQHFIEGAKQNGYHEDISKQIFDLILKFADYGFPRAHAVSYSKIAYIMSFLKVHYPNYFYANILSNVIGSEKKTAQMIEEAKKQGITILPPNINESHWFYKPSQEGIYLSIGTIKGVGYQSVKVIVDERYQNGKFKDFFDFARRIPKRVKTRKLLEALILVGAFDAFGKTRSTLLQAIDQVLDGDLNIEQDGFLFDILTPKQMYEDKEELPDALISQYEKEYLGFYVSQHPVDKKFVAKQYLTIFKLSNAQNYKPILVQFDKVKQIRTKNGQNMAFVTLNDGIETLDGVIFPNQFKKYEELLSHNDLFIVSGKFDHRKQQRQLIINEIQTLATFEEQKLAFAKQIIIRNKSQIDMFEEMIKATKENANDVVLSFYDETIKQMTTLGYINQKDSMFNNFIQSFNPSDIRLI
Summary of the method: as §1

[3] = test system: Escherichia coli MB5747 (LS 883, tolC); assay: microbe, parasite or virus in culture; format: cell-based; conditions: * = some reduction of growth versus control at […]; for E. coli LS883 tolC (MIC): MHII broth; for MIC: Escherichia coli, read-out: E. coli LS883 tolC (MIC), MHII broth
[4] = test system: Pseudomonas aeruginosa MB5890 (CB1101, efflux-deleted); assay: microbe, parasite or virus in culture; format: cell-based; conditions: * = some reduction of growth versus control at […]; for P. aeruginosa MB5890 efflux-del (MIC): MHII broth; for MIC: Pseudomonas aeruginosa, read-out: P. aeruginosa MB5890 efflux-del (MIC), MHII broth
[5] = test system: Staphylococcus aureus MB6266 (MRSA COL); assay: Nargenicin antibacterial assay (MIC), S. aureus; format: cell-based; conditions: * = some reduction of growth versus control at […]; for S. aureus COL (MIC): MHII broth + 50% human serum; for MIC: Staphylococcus aureus, MRSA, read-out: S. aureus COL (MIC), MHII broth + 50% human serum
[6] = test system: Streptococcus pneumoniae MB6357 (CL 2883); assay: Nargenicin antibacterial assay (MIC), S. pneumoniae; format: cell-based; conditions: * = some reduction of growth versus control at […]; for S. pneumoniae MB2883 (MIC): Isosensitest broth; for MIC: Streptococcus pneumoniae, read-out: S. pneumoniae MB2883 (MIC), Isosensitest broth
[7] = test system: Drug susceptible M. tuberculosis clinical isolates; format: cell-based, Mycobacterium tuberculosis

T1 sequence (P10443 whole entry, the tested form may be a part): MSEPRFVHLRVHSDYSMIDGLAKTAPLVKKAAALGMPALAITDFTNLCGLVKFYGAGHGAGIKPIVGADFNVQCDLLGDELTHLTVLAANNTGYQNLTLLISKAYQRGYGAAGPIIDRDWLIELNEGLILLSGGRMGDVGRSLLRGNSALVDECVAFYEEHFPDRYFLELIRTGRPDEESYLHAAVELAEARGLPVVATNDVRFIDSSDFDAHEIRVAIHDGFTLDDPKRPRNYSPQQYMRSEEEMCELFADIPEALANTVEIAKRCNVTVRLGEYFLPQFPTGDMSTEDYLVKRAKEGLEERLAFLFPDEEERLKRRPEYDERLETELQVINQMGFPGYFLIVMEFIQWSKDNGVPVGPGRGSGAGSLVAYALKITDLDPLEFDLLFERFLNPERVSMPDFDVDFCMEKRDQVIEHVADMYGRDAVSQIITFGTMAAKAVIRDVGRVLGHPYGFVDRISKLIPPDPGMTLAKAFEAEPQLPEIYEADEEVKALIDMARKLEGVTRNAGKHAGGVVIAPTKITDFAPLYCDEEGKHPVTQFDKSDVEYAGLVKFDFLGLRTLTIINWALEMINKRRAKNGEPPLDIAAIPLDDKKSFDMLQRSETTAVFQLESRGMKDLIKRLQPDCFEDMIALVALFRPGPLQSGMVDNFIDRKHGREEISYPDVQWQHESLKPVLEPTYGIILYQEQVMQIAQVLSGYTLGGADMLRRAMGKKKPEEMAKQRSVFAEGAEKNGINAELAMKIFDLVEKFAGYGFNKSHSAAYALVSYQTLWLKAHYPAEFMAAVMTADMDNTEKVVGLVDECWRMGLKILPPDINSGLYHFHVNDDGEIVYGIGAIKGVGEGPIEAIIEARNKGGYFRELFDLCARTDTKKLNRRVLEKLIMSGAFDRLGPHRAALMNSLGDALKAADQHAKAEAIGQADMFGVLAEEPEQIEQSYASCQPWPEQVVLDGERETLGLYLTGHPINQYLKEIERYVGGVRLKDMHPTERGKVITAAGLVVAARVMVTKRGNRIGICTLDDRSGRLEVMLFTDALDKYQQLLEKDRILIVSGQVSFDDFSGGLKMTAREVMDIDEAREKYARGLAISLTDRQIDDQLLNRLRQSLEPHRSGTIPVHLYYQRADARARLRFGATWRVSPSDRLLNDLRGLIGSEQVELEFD

| SMILES | E. coli DnaE IC50 [1] | S. aureus DnaE IC50 [2] | E. coli LS883 tolC (MIC) [3] | P. aeruginosa MB5890 efflux-del (MIC) [4] | S. aureus COL (MIC) [5] | S. pneumoniae MB2883 (MIC) [6] | MICs compared with nargenicin [7] | IC50 [1] | IC50 ([2]; S. aureus DnaE IC50) | MIC [3] | MIC [4] | MIC [5] | MIC [6] | MICs compared with nargenicin ([7]; M. tuberculosis clinical isolates (MTB panel)) | IC50 ([2]; read-out: S. aureus DnaE IC50) |
| --- | --- | --- | --- | --- | --- | --- | --- | --- | --- | --- | --- | --- | --- | --- | --- |
| CO[C@H]1C[C@H]2C=CC3C4[C@H](O)[C@@H](C)[C@@H](OC(=O)c5ccc[nH]5)[C@@H]3O[C@]42/C(C)=C/[C@@H](C)[C@@H]([C@@H](C)OC(=O)C(=O)N2CCOCC2)OC1=O [Example 118] | >100 µg/mL | 0.004 µg/mL | 1 µg/mL | 32 µg/mL | 0.5 µg/mL | 128 µg/mL | equal to or better than nargenicin | – | – | – | – | – | – | – | – |
| CO[C@H]1C[C@H]2C=C[C@H]3[C@H]4O[C@]2(/C(C)=C/[C@@H](C)[C@@H]([C@@H](C)O)OC1=O)[C@@H]3[C@H](O)[C@@H](C)[C@H]4OC(N)=O [Example 197] | – | – | – | – | – | – | – | 81600 nM | 23.6 nM | 2 µg/mL (≈ 4.3 µM) | 2 µg/mL (≈ 4.3 µM) | 128 µg/mL | > 128 µg/mL | – | – |
| CO[C@H]1C[C@H]2C=CC3C4[C@H](O)[C@@H](C)[C@@H](OC(=O)c5ccc[nH]5)[C@@H]3O[C@]42/C(C)=C/[C@@H](C)[C@@H]([C@@H](C)OS(=O)(=O)O)OC1=O [Example 198] | – | – | – | – | – | – | – | 20100 nM | < 10.1 nM | 4 µg/mL (≈ 6.72 µM) | 64 µg/mL (≈ 107 µM) | 4 µg/mL | > 128 µg/mL | – | – |
| C=C1C[C@H]2[C@H]3O[C@]4(/C(C)=C/[C@@H](C)[C@@H]([C@@H](C)O)OC(=O)[C@@H](OC)C[C@@H]14)[C@@H]2[C@H](O)[C@@H](C)[C@H]3OC(=O)c1ccc[nH]1 [Example 199] | – | – | – | – | – | – | – | 142000 nM | 28.3 nM | 16 µg/mL (≈ 30.2 µM) | > 128 µg/mL | 32 µg/mL | > 128 µg/mL | – | – |
| C=C1C[C@@H]2C[C@H](OC)C(=O)O[C@H]([C@@H](C)O)[C@H](C)/C=C(\C)[C@]23O[C@H]2[C@H](OC(=O)c4ccc[nH]4)[C@H](C)[C@@H](O)[C@@H]3[C@@H]12 [Example 200] | – | – | – | – | – | – | – | > 189000 nM | 11.3 nM | 2 µg/mL (≈ 3.78 µM) | 64 µg/mL (≈ 121 µM) | 8 µg/mL | 128 µg/mL (≈ 242 µM) | – | – |
| CO[C@H]1CC2C=C[C@H]3[C@H]4O[C@]2(/C(C)=C/[C@@H](C)[C@@H](C(C)O)OC1=O)[C@@H]3[C@H](O)[C@@H](C)[C@H]4OC(=O)c1[nH]c(-c2ccsc2)c(-c2ccsc2)c1-c1ccsc1 (some centres unmarked) [Example 201] | – | – | – | – | – | – | – | 525 nM | 394 nM | > 128 µg/mL | > 128 µg/mL | > 128 µg/mL | 128 µg/mL (≈ 168 µM) | – | – |
| CO[C@H]1C[C@H]2C=C[C@@H]3[C@H]4[C@H](O)[C@@H](C)C(=O)[C@@H]3O[C@]42/C(C)=C/[C@@H](C)[C@@H]([C@@H](C)O)OC1=O [Example 202] | – | – | – | – | – | – | – | > 238000 nM | 78500 nM | 128 µg/mL (≈ 304 µM) | > 128 µg/mL | > 128 µg/mL | > 128 µg/mL | – | – |
| CO[C@H]1C[C@H]2C=C[C@H]3[C@H]4O[C@]2(/C(C)=C/[C@@H](C)[C@@H]([C@@H](C)O)OC1=O)[C@@H]3[C@H](O)[C@@H](C)[C@H]4OC(=O)c1cccn1C(C)=O [Example 203] | – | – | – | – | – | – | – | 11700 nM | < 10.8 nM | < 0.125 µg/mL | 16 µg/mL (≈ 28.7 µM) | < 0.125 µg/mL | 128 µg/mL (≈ 230 µM) | – | – |
| CO[C@H]1CC2C=C[C@H]3[C@H]4O[C@]2(/C(C)=C/[C@@H](C)[C@@H](C(C)O)OC1=O)[C@@H]3[C@H](O)[C@@H](C)[C@H]4OC(=O)c1cccn1C(=O)C(C)C (some centres unmarked) [Example 204] | – | – | – | – | – | – | – | – | – | – | – | – | – | equal to or better than nargenicin | – |
| CO[C@H]1C[C@H]2C=CC3C4[C@H](O)[C@@H](C)[C@@H](OC(=O)c5ccc[nH]5)[C@@H]3O[C@]42/C(C)=C/[C@@H](C)[C@@H]([C@@H](C)OC(=O)C(=O)OCCCN(C)C)OC1=O.O=C(O)C(F)(F)F [Example 206] | – | – | – | – | – | – | – | 1910 nM | < 7.63 nM | 4 µg/mL | 64 µg/mL | 4 µg/mL | > 128 µg/mL | – | – |
| CO[C@H]1C[C@H]2C=CC3C4[C@H](O)[C@@H](C)[C@@H](OC(=O)c5ccc[nH]5)[C@@H]3O[C@]42/C(C)=C/[C@@H](C)[C@@H]([C@@H](C)OC(=O)C(=O)OCc2cncn2C)OC1=O.O=C(O)C(F)(F)F [Example 207] | – | – | – | – | – | – | – | 3270 nM | < 7.54 nM | 4 µg/mL | 64 µg/mL | 4 µg/mL | > 64 µg/mL | – | – |
| CO[C@H]1C[C@H]2C=CC3C4[C@H](OC(=O)C(=O)OCCN5CCN(C)CC5)[C@@H](C)[C@@H](OC(=O)c5ccc[nH]5)[C@@H]3O[C@]42/C(C)=C/[C@@H](C)[C@@H]([C@@H](C)OC(=O)C(=O)OCCN2CCN(C)CC2)OC1=O.O=C(O)C(F)(F)F [Example 209] | – | – | – | – | – | – | – | 16600 nM | < 5.85 nM | 4 µg/mL | > 128 µg/mL | 4 µg/mL | > 128 µg/mL | – | – |
| CO[C@H]1C[C@H]2C=CC3C4[C@H](O)[C@@H](C)[C@@H](OC(=O)c5ccc[nH]5)[C@@H]3O[C@]42/C(C)=C/[C@@H](C)[C@@H]([C@@H](C)OC(=O)C(=O)OCCN2CCN(C)CC2)OC1=O.O=C(O)C(F)(F)F [Example 210] | – | – | – | – | – | – | – | 4950 nM | < 7.25 nM | 1 µg/mL | 32 µg/mL | 1 µg/mL | > 128 µg/mL | – | – |
| CO[C@H]1C[C@H]2C=CC3C4[C@H](O)[C@@H](C)[C@@H](OC(=O)c5ccc[nH]5)[C@@H]3O[C@]42/C(C)=C/[C@@H](C)[C@@H]([C@@H](C)OC(=O)C(=O)OCc2ccccc2)OC1=O [Example 211] | – | – | – | – | – | – | – | 2950 nM | < 8.85 nM | < 0.125 µg/mL | 16 µg/mL (≈ 23.6 µM) | 0.5 µg/mL | > 128 µg/mL | – | – |
| CO[C@H]1C[C@H]2C=CC3C4[C@H](O)[C@@H](C)[C@@H](OC(=O)c5ccc[nH]5)[C@@H]3O[C@]42/C(C)=C/[C@@H](C)[C@@H]([C@@H](C)OC(=O)C(=O)OCCN2CCCC2)OC1=O.O=C(O)C(F)(F)F [Example 212] | – | – | – | – | – | – | – | 3760 nM | < 7.51 nM | 4 µg/mL | 128 µg/mL | 4 µg/mL | > 128 µg/mL | – | – |
| CO[C@H]1C[C@H]2C=CC3C4[C@H](O)[C@@H](C)[C@@H](OC(=O)c5ccc[nH]5)[C@@H]3O[C@]42/C(C)=C/[C@@H](C)[C@@H]([C@@H](C)OC(=O)C(=O)OCCN2CCCCC2)OC1=O.O=C(O)C(F)(F)F [Example 213] | – | – | – | – | – | – | – | 4430 nM | < 7.38 nM | 4 µg/mL | 128 µg/mL | 4 µg/mL | > 128 µg/mL | – | – |
| CO[C@H]1CC2C=C[C@H]3[C@H]4O[C@]2(/C(C)=C/[C@@H](C)[C@@H](C(C)O)OC1=O)[C@@H]3[C@H](O)[C@@H](C)[C@H]4OC(=O)c1ccc[nH]1 (some centres unmarked) [Nar, Nargenicin] | – | – | 0.25 to 0.5 µg/mL | 8 µg/mL | 0.25 to 0.5 µg/mL | >64 µg/mL | – | 776 to 5040 nM | – | – | – | – | – | – | 0.388 to 11.6 nM |
